According to patent US8969565B2, “Imidazo[1,2-b]pyridazine-based compounds, compositions comprising them, and methods of their use” (Lexicon Pharmaceuticals, Inc., priority 2012, dated 2015):

Target: T1, AAK1 (Homo sapiens, UniProt Q2M2I8)
T1 construct: HA; expressed in transfected cells; host or cells: HEK293F
Assay: HEK281 cell-based assay (phospho-mu2 Western blot in transfected HEK293F cells)
Conditions: 3 hours incubation, read-out: CBA IC50
In short: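 After 3 hours at 37° C. with compound (five 3-fold-spaced concentrations, DMEM+0.5% FBS), transiently transfected HEK293F cells expressing full-length human AAK1 and Flag-tagged mu2 were lysed. mu2 phosphorylation was read by anti-phospho-mu2 immunoblot, normalized against total mu2 by anti-Flag blot.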

T1 sequence (Q2M2I8 1-863 isoform Q2M2I8-2): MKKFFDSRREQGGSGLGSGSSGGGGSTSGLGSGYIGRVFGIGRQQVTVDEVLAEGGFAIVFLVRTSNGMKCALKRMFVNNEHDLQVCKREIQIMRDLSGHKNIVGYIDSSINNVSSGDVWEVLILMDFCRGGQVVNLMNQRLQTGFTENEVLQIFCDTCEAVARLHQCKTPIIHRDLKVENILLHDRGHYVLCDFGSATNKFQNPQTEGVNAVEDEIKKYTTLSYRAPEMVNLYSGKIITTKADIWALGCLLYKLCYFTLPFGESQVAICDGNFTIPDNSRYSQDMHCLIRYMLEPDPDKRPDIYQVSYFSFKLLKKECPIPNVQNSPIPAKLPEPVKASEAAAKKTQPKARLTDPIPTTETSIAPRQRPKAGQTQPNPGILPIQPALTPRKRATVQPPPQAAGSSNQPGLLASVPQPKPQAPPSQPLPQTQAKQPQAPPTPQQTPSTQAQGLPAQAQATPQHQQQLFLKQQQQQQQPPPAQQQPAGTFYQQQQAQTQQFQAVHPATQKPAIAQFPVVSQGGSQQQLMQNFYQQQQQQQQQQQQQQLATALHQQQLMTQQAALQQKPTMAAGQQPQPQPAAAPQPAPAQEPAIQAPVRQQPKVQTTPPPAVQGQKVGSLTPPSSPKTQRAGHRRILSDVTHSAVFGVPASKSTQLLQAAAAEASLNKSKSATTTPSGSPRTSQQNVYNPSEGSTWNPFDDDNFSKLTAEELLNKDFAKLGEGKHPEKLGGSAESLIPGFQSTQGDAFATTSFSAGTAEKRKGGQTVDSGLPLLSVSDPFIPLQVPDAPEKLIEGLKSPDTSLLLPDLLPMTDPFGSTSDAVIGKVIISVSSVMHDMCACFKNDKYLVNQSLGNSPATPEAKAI

| Structure (SMILES) | IC50 |
| --- | --- |
| CC(C)(C)OC(=O)N1CCN(c2ccc3ncc(Cl)n3n2)CC1 [tert-butyl 4-(3-chloroimidazo[1,2-b]pyridazin-6-yl)piperazine-1-carboxylate] | ≤ 100 nM |
| COc1cnccc1-c1cnc2ccc(NCCCOC(C)(C)C)nn12 [N-(3-(tert-butoxy)propyl)-3-(3-methoxypyridin-4-yl)imidazo[1,2-b]pyridazin-6-amine] | ≤ 1000 nM |
| COc1cnccc1-c1cnc2ccc(N3CCN(C(=O)OC(C)(C)C)CC3)nn12 [tert-butyl 4-(3-(3-methoxypyridin-4-yl)imidazo[1,2-b]pyridazin-6-yl)piperazine-1-carboxylate] | ≤ 10 nM |
| CCCNc1ccc2ncc(-c3ccc(CN)cc3)n2n1 [3-(4-(aminomethyl)phenyl)-N-propylimidazo[1,2-b]pyridazin-6-amine] | ≤ 1000 nM |
| CC(C)(C)CCNc1ccc2ncc(-c3ccc(CN)cc3)n2n1 [3-(4-(aminomethyl)phenyl)-N-(3,3-dimethylbutyl)imidazo[1,2-b]pyridazin-6-amine] | ≤ 100 nM |
| CCOC(=O)N(C)CCCNc1ccc2ncc(-c3ccc(C(C)=O)s3)n2n1 [ethyl (3-((3-(5-acetylthiophen-2-yl)imidazo[1,2-b]pyridazin-6-yl)amino)propyl)(methyl)carbamate] | ≤ 1000 nM |
| NCc1ccc(-c2cnc3ccc(NCCCCc4ccccc4)nn23)cc1 [3-(4-(aminomethyl)phenyl)-N-(4-phenylbutyl)imidazo[1,2-b]pyridazin-6-amine] | ≤ 100 nM |
| CCCCNc1ccc2ncc(-c3ccc(CNC(C)(C)C)c(F)c3)n2n1 [N-butyl-3-(4-((tert-butylamino)methyl)-3-fluorophenyl)imidazo[1,2-b]pyridazin-6-amine] | ≤ 100 nM |
| CCCCNc1ccc2ncc(-c3ccc(C(=O)NCCN)cc3)n2n1 [N-(2-aminoethyl)-4-(6-(butylamino)imidazo[1,2-b]pyridazin-3-yl)benzamide] | ≤ 1000 nM |
| COc1cc(F)ccc1-c1cnc2ccc(NCCN(C)C(=O)OC(C)C)nn12 [isopropyl (2-((3-(4-fluoro-2-methoxyphenyl)imidazo[1,2-b]pyridazin-6-yl)amino)ethyl)(methyl)carbamate] | ≤ 100 nM |
| CCCCNc1ccc2ncc(-c3ccc(C(=O)NCCNC)cc3)n2n1 [4-(6-(butylamino)imidazo[1,2-b]pyridazin-3-yl)-N-(2-(methylamino)ethyl)benzamide] | ≤ 100 nM |
| CC(C)OC(=O)N(CCNc1ccc2ncc(-c3ccc(C(N)=O)cc3)n2n1)C(C)C [isopropyl (2-((3-(4-carbamoylphenyl)imidazo[1,2-b]pyridazin-6-yl)amino)ethyl)(isopropyl)carbamate] | ≤ 100 nM |
| CCCCNc1ccc2ncc(C(=O)Nc3cn[nH]c3)n2n1 [6-(butylamino)-N-(1H-pyrazol-4-yl)imidazo[1,2-b]pyridazine-3-carboxamide] | ≤ 1000 nM |
| CN(CCCNc1ccc2ncc(-c3ccc(CN)cc3)n2n1)C(=O)C(C)(C)C [N-(3-((3-(4-(aminomethyl)phenyl)imidazo[1,2-b]pyridazin-6-yl)amino)propyl)-N-methylpivalamide] | ≤ 1000 nM |
| CCCCNc1ccc2ncc(C(=O)Nc3ccc(CN)cc3)n2n1 [N-(4-(aminomethyl)phenyl)-6-(butylamino)imidazo[1,2-b]pyridazine-3-carboxamide] | ≤ 1000 nM |
| Fc1cnccc1-c1cnc2ccc(NCCOC3CCCC3)nn12 [N-(2-(cyclopentyloxy)ethyl)-3-(3-fluoropyridin-4-yl)imidazo[1,2-b]pyridazin-6-amine] | ≤ 100 nM |
| COC(=O)N1CCC[C@H]1CNc1ccc2ncc(-c3ccccc3OC)n2n1 [(S)-methyl 2-(((3-(2-methoxyphenyl)imidazo[1,2-b]pyridazin-6-yl)amino)methyl)pyrrolidine-1-carboxylate] | ≤ 100 nM |
| CC(C)(C)OC(=O)NCCNc1ccc2ncc(-c3ccc(CN)cc3)n2n1 [tert-butyl (2-((3-(4-(aminomethyl)phenyl)imidazo[1,2-b]pyridazin-6-yl)amino)ethyl)carbamate] | ≤ 100 nM |
| COc1ccccc1-c1cnc2ccc(NC[C@@H]3CCCN3C(=O)OC(C)C)nn12 [(S)-isopropyl 2-(((3-(2-methoxyphenyl)imidazo[1,2-b]pyridazin-6-yl)amino)methyl)pyrrolidine-1-carboxylate] | ≤ 10 nM |
| COc1cnccc1-c1cnc2ccc(NC[C@@H]3CCN(C(=O)OC(C)(C)C)C3)nn12 [(S)-tert-butyl 3-(((3-(3-methoxypyridin-4-yl)imidazo[1,2-b]pyridazin-6-yl)amino)methyl)pyrrolidine-1-carboxylate] | ≤ 1000 nM |
| c1cc(C2CCCN2)ccc1-c1cnc2ccc(NCCOC3CCCC3)nn12 (stereo not shown) [N-(2-(cyclopentyloxy)ethyl)-3-(4-(pyrrolidin-2-yl)phenyl)imidazo[1,2-b]pyridazin-6-amine] | ≤ 100 nM |
| CCOC(=O)N(C)CCNc1ccc2ncc(-c3ccc(C(N)=O)cc3)n2n1 [ethyl (2-((3-(4-carbamoylphenyl)imidazo[1,2-b]pyridazin-6-yl)amino)ethyl)(methyl)carbamate] | ≤ 100 nM |

| Structure (SMILES) | IC50 |
| --- | --- |
| CC(C)OC(=O)N(C)CCNc1ccc2ncc(-c3ccnc(N)c3)n2n1 [isopropyl (2-((3-(2-aminopyridin-4-yl)imidazo[1,2-b]pyridazin-6-yl)amino)ethyl)(methyl)carbamate] | ≤ 100 nM |
| CN(CCCNc1ccc2ncc(-c3ccc(CN)cc3)n2n1)C(=O)OC(C)(C)C [tert-butyl (3-((3-(4-(aminomethyl)phenyl)imidazo[1,2-b]pyridazin-6-yl)amino)propyl)(methyl)carbamate] | ≤ 100 nM |
| CC(C)(C)OC(=O)N1CCC[C@H]1CNc1ccc2ncc(C(F)(F)F)n2n1 [(S)-tert-butyl 2-(((3-(trifluoromethyl)imidazo[1,2-b]pyridazin-6-yl)amino)methyl)pyrrolidine-1-carboxylate] | ≤ 100 nM |
| CC(C)OC(=O)N1CCC[C@H]1CNc1ccc2ncc(C3CC3)n2n1 [(S)-isopropyl 2-(((3-cyclopropylimidazo[1,2-b]pyridazin-6-yl)amino)methyl)pyrrolidine-1-carboxylate] | ≤ 1000 nM |
| CC(C)COC(=O)N(C)CCNc1ccc2ncc(-c3ccc(C(N)=O)cc3)n2n1 [isobutyl (2-((3-(4-carbamoylphenyl)imidazo[1,2-b]pyridazin-6-yl)amino)ethyl)(methyl)carbamate] | ≤ 100 nM |
| CC(C)OC(=O)N(CCNc1ccc2ncc(-c3ccncc3)n2n1)C(C)C [isopropyl isopropyl(2-((3-(pyridin-4-yl)imidazo[1,2-b]pyridazin-6-yl)amino)ethyl)carbamate] | ≤ 100 nM |
| C=Cc1cnc2ccc(NC[C@@H]3CCCN3C(=O)OC(C)C)nn12 [(S)-isopropyl 2-(((3-vinylimidazo[1,2-b]pyridazin-6-yl)amino)methyl)pyrrolidine-1-carboxylate] | ≤ 10 nM |
| CCCCNc1ccc2ncc(-c3ccc(C(=O)NCCN(CC)CC)cc3)n2n1 [4-(6-(butylamino)imidazo[1,2-b]pyridazin-3-yl)-N-(2-(diethylamino)ethyl)benzamide] | ≤ 10 nM |
| CCCCNc1ccc2ncc(C(=O)Nc3ccc(OCCN)cc3)n2n1 [N-(4-(2-aminoethoxy)phenyl)-6-(butylamino)imidazo[1,2-b]pyridazine-3-carboxamide] | ≤ 1000 nM |
| CCOC(=O)N1CCC[C@H]1CNc1ccc2ncc(-c3ccccc3OC)n2n1 [(S)-ethyl 2-(((3-(2-methoxyphenyl)imidazo[1,2-b]pyridazin-6-yl)amino)methyl)pyrrolidine-1-carboxylate] | ≤ 100 nM |
| CCOC(=O)N(C)[C@H]1CCN(c2ccc3ncc(-c4ccc(C)nc4OC)n3n2)C1 [(S)-ethyl (1-(3-(2-methoxy-6-methylpyridin-3-yl)imidazo[1,2-b]pyridazin-6-yl)pyrrolidin-3-yl)(methyl)carbamate] | ≤ 100 nM |
| CCCCCNc1ccc2ncc(-c3ccc(CN)cc3)n2n1 [3-(4-(aminomethyl)phenyl)-N-pentylimidazo[1,2-b]pyridazin-6-amine] | ≤ 1000 nM |
| CC(C)OC(=O)N(C)CCNc1ccc2ncc(-c3ccccc3F)n2n1 [isopropyl (2-((3-(2-fluorophenyl)imidazo[1,2-b]pyridazin-6-yl)amino)ethyl)(methyl)carbamate] | ≤ 100 nM |
| COc1cnccc1-c1cnc2ccc(N3CCN(C(=O)OC(C)C)CC3)nn12 [isopropyl 4-(3-(3-methoxypyridin-4-yl)imidazo[1,2-b]pyridazin-6-yl)piperazine-1-carboxylate] | ≤ 10 nM |
| CCOC(=O)N(C)CCNc1ccc2ncc(-c3ccc(C(=O)NCCC(C)C)cc3)n2n1 [ethyl (2-((3-(4-(isopentylcarbamoyl)phenyl)imidazo[1,2-b]pyridazin-6-yl)amino)ethyl)(methyl)carbamate] | ≤ 100 nM |
| CC(C)(C)COC(=O)N1CCC[C@H]1CNc1ccc2ncc(Br)n2n1 [(S)-neopentyl 2-(((3-bromoimidazo[1,2-b]pyridazin-6-yl)amino)methyl)pyrrolidine-1-carboxylate] | ≤ 100 nM |
| CC(C)(C)OCCNc1ccc2ncc(-c3ccc(CN)cc3)n2n1 [3-(4-(aminomethyl)phenyl)-N-(2-(tert-butoxy)ethyl)imidazo[1,2-b]pyridazin-6-amine] | ≤ 100 nM |
| COc1cnccc1-c1cnc2ccc(NCCCC(F)(F)F)nn12 [3-(3-methoxypyridin-4-yl)-N-(4,4,4-trifluorobutyl)imidazo[1,2-b]pyridazin-6-amine] | ≤ 10 nM |
| CC(C)OC(=O)N1CCN(c2ccc3ncc(-c4cccc5c4OCO5)n3n2)CC1 [isopropyl 4-(3-(benzo[d][1,3]dioxo1-4-yl)imidazo[1,2-b]pyridazin-6-yl)piperazine-1-carboxylate] | ≤ 100 nM |
| CN(CCCNc1ccc2ncc(-c3ccc(CN)cc3)n2n1)c1ccccc1 [N1-(3-(4-(aminomethyl)phenyl)imidazo[1,2-b]pyridazin-6-yl)-N3-methyl-N3-phenylpropane-1,3-diamine] | ≤ 100 nM |
| CC(C)OCCNc1ccc2ncc(-c3ccc(CN)cc3)n2n1 [3-(4-(aminomethyl)phenyl)-N-(2-isopropoxyethyl)imidazo[1,2-b]pyridazin-6-amine] | ≤ 100 nM |
